Measured values: patent publication US20250339360A1, “COSMETIC COMPOSITIONS COMPRISING RETINOIDS AND MOISTURIZERS AND METHODS FOR STABLIZING RETINOIDS” (ELC Management LLC, priority 2024, published 2025)

Test: Retinoid storage stability in stability chamber, hydroxypinacolone retinoate analysed by UPLC/UV-VIS at 360 nm
Type: physicochemical
Conditions: 6-month testing period, 25° C. and 40° C., within measurement accuracy
Method: The above samples were tested under two sets of temperature conditions. Each sample was placed in a stability chamber maintained at either room temperature (25° C.±2° C.) or accelerated (elevated) temperature (40° C.±2° C.). Each stability chamber was maintained at a relative humidity of 60%+5%. Stability of the retinoid was monitored at various time points: initially, after one month, after two months, after three months, and after six months. Assessment of the retinoid stability was conducted by removing a sample from the stability chamber and analyzing for hydroxypinacolone retinoate by UPLC/UV-VIS (Waters ACQUITY UPLC H-Class PLUS System with a photodiode array (PDA) detector). A wavelength of 360 nm was used for analyses. The measured concentrations were determined with a measurement accuracy of about +10%. The initial and subsequent concentrations are believed to deviate from the expected 0.1 wt % due to some initial degradation of the stock hydroxypinacolone retinoate.

SMILES: CC1=C(/C=C/C(C)=C/C=C/C(C)=C/C(=O)OCC(=O)C(C)(C)C)C(C)(C)CCC1 [hydroxypinacolone retinoate]
- Hydroxypinacolone retinoate concentration over the testing period: remained essentially constant
